Source: patent publication US20240174638A1, “HETEROARYL DERIVATIVES AS APELIN RECEPTOR AGONISTS” (RESEARCH TRIANGLE INSTITUTE, priority 2021, published 2024)
Where two headings read alike, the source gives them in different places.

Test: Plasma and tissue pharmacokinetics following a single oral administration in male SD rat
Type: in vivo
Procedure: Assay: Plasma and Tissue Pharmacokinetics of Example 22 Following a Single Oral Administration in Male SD Rat
Preparation of PO (10 mg/kg, 10 mL/kg) Dosing
1 mg/mL solution of 0.5% (w/v) CMC-Na, 0.1% (v/v) Tween 80 in Milli-Q Water.
Dissolved 29.68 mg of EXAMPLE 22 in 29.637 mL of 0.5% (w/v) CMC-Na, 0.1% (v/v). Tween 80 in Milli-Q Water with vortexing and sonicate to obtain a solution.
(§1) The desired serial concentrations of working solutions were achieved by diluting stock solution of analyte with 50% acetonitrile in water solution. 5 μL of working solutions (10, 20, 50, 100, 500, 1000, 5000, 10000 ng/mL) were added to 50 μL of the blank SD Rat plasma to achieve calibration standards of 1˜1000 ng/mL (1, 2, 5, 10, 50, 100, 500, 1000 ng/mL) in a total volume of 55 μL. Four quality control samples at 2 ng/mL, 5 ng/mL, 50 ng/mL and 800 ng/mL for plasma were prepared independently of those used for the calibration curves. These QC samples were prepared on the day of analysis in the same way as calibration standards.
55 μL standards, 55 μL QC samples and 55 μL unknown samples (50 μL plasma with 5 μL blank solution) were added to 200 μL of acetonitrile containing IS mixture for precipitating protein respectively. Then the samples were vortexed for 30 s. After centrifugation at 4 degree Celsius, 3900 rpm for 15 min, the supernatant was diluted 3 times with water. 20 μL of diluted supernatant was injected into the LC/MS/MS system for quantitative analysis.
as §1, with “Rat tissue (lung, brain, kidney, muscle/skeletal, spleen, heart and skin) homogenous” for “Rat plasma”, “for tissue” for “for plasma”
50 μL standards, 50 μL QC samples and 50 μL unknown samples (50 μL Tissue with 5 μL blank solution) were added to 200 μL of acetonitrile containing IS mixture for precipitating protein respectively. Then the samples were vortexed for 30 s. After centrifugation at 4 degree Celsius, 3900 rpm for 15 min, the supernatant was diluted 3 times with water. 50 μL of heart diluted supernatant and 20 μL of other tissue diluted supernatant was injected into the LC/MS/MS system for quantitative analysis.

O=C(O)C[C@H](CCN1CCCC(F)(F)C1)NC(=O)c1cc(-c2ccccc2C(F)(F)F)n(-c2nccs2)n1 [Example 22, (3S)-5-(3,3-difluoropiperidin-1-yl)-3-{[1-(1,3-thiazol-2-yl)-5-[2-(trifluoromethyl)phenyl]-1H-pyrazol-3-yl]formamido}pentanoic acid]
4 h Conc., Brain (mean) (4 h post dose): BLQ | 24 h Conc., Brain (mean) (24 h post dose): BLQ | 24 h Conc., Heart (mean) (24 h post dose): BLQ | 24 h Conc., Muscle (mean) (24 h post dose): BLQ | 24 h Conc., Skin (mean) (24 h post dose): BLQ | 24 h Conc., Spleen (mean) (24 h post dose): BLQ | concentration at 4 h (heart, 10 mg/kg, 4 h post dose, read-out: 4 h Conc., Heart (mean)): 28.8 ng/g | Kp at 4 h (heart, 10 mg/kg, 4 h post dose, read-out: 4 h Tissue:Plasma Ratio, Heart): 0.28 | Kp at 24 h (kidney (to plasma), 10 mg/kg, 24 h post dose, read-out: 24 h Tissue:Plasma Ratio, Kidney): 3.47 | concentration at 4 h (kidney, 10 mg/kg, 4 h post dose, read-out: 4 h Conc., Kidney (mean)): 305 ng/g | Kp at 4 h (kidney, 10 mg/kg, 4 h post dose, read-out: 4 h Tissue:Plasma Ratio, Kidney): 3.11 | concentration at 24 h (kidney, 10 mg/kg, 24 h post dose, read-out: 24 h Conc., Kidney (mean)): 22.9 ng/g | concentration at 4 h (lung, 10 mg/kg, 4 h post dose, read-out: 4 h Conc., Lung (mean)): 40 ng/g | Kp at 4 h (lung, 10 mg/kg, 4 h post dose, read-out: 4 h Tissue:Plasma Ratio, Lung): 0.39 | concentration at 4 h (muscle (skeletal), 10 mg/kg, 4 h post dose, read-out: 4 h Conc., Muscle (mean)): 7.3 ng/g | Kp at 4 h (muscle (skeletal), 10 mg/kg, 4 h post dose, read-out: 4 h Tissue:Plasma Ratio, Muscle): 0.07 | concentration at 4 h (plasma, 10 mg/kg, 4 h post dose, read-out: 4 h Conc., Plasma (mean)): 102 ng/mL | concentration at 24 h (plasma, 10 mg/kg, 24 h post dose, read-out: 24 h Conc., Plasma (mean)): 6.6 ng/mL | concentration at 4 h (skin, 10 mg/kg, 4 h post dose, read-out: 4 h Conc., Skin (mean)): 19.3 ng/g | Kp at 4 h (skin, 10 mg/kg, 4 h post dose, read-out: 4 h Tissue:Plasma Ratio, Skin): 0.19 | concentration at 4 h (spleen, 10 mg/kg, 4 h post dose, read-out: 4 h Conc., Spleen (mean)): 14 ng/g | Kp at 4 h (spleen, 10 mg/kg, 4 h post dose, read-out: 4 h Tissue:Plasma Ratio, Spleen): 0.14
